The results in this text go back to patent US20200071326A1, “TAM KINASE INHIBITORS” (Syros Pharmaceuticals, Inc., priority 2017, published 2020).

The target in one experiment is T1, AXL (Homo sapiens, UniProt P30530).
T1 sequence (P30530 26-894): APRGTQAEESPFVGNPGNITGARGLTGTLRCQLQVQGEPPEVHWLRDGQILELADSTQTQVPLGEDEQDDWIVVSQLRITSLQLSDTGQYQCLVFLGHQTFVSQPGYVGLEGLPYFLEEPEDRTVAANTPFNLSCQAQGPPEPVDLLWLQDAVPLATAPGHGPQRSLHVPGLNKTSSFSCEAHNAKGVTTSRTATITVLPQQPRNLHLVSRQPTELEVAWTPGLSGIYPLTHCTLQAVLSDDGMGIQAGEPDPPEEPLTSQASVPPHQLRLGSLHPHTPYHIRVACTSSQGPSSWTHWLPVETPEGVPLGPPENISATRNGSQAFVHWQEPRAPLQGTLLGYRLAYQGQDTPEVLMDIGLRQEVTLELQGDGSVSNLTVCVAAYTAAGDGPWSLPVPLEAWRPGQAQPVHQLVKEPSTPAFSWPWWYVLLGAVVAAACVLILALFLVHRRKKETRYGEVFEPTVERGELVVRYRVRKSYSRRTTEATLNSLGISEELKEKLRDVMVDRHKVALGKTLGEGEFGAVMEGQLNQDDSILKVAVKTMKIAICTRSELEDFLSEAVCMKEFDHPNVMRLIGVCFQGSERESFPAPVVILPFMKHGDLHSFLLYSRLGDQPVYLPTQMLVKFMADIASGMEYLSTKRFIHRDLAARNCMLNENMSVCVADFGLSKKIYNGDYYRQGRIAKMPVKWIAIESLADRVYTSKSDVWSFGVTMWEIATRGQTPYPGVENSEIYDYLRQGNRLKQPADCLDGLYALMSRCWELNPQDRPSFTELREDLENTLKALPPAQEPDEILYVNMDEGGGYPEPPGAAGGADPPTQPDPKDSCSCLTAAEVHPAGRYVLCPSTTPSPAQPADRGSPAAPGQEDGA
Briefly: IMAP fluorescence polarization kinase assay, AXL. The format is biochemical. Conditions: ATP 24.7 μM, enzyme 2.5 nM, 240 minutes, read-out: AXL inhibitory constant (Ki). The protocol:
(§1) Activities of compounds against each of TYRO3, AXL, and MERTK as well as against FLT3, were determined using an immobilized metal ion affinity-based fluorescence polarization (“IMAP”) assay. A fluorescently-labeled substrate peptide was phosphorylated in the kinase reaction, after which a binding solution containing large trivalent metal-based nanoparticles was added and the phosphorylated substrate binds to these beads. This reduces the rotational speed of the substrate which is then detected using fluorescence polarization as a read-out.
(§2) The substrates used for each enzyme are as follows: AXL: 5F1-KKKKEEIYFFFG-NH2(SEQ ID NO:1); FLT3: 5F1-KKKKEEIYFFF-NH2 (SEQ ID NO:2); MERTK: 5F1-EFPIYDFLPAKKK-NH2 (SEQ ID NO:3); and TYRO3: 5F1-EFPIYDFLPAKKK-NH2 (SEQ ID NO:4).
(§3) This assay was performed in a 384-well, polystyrene microplate in a final volume of 8 μl. Substrate (final concentration=400 nM), ATP (final concentrations=24.7μM for AXL; 2.74 μM for FLT3; 2.69 μM for MERTK; and 54.0 μM for TYRO3), compounds and enzyme (final concentrations=2.5 nM for AXL, FLT3 and TYRO3; 1.5 nM for MERTK) were pipetted in this order into the appropriate reaction buffer (AXL: 50 mM HEPES, pH 8.0, 1 mM DTT, 10 mM MgCl2, 0.01% BRU35, 0.01% Triton X-100; FLT3: 50 mM HEPES, pH 8.0, 1 mM DTT, 10 mM MgCl2, 0.01% Triton X-100, 0.01% NP40; MERTK/TYRO3: 50 mM HEPES, pH 8.0, 1 mM DTT, 10 mM MgCl2, 0.01% Triton X-100) and incubated at room temperature for varying times (AXL, FLT3 and MERTK: 240 minutes; TYRO3: 60 minutes). IMAP binding solution was then dispensed, the plate incubated for 60 minutes at room temperature and the fluorescence polarization measured. Data were analyzed using XLfit.
In general terms: Fluorescence polarisation rises when a labelled molecule tumbles more slowly, as on binding a larger partner.

The next experiment has as its target T2, TYRO3 (Homo sapiens, UniProt Q06418).
T2 sequence (Q06418 41-890): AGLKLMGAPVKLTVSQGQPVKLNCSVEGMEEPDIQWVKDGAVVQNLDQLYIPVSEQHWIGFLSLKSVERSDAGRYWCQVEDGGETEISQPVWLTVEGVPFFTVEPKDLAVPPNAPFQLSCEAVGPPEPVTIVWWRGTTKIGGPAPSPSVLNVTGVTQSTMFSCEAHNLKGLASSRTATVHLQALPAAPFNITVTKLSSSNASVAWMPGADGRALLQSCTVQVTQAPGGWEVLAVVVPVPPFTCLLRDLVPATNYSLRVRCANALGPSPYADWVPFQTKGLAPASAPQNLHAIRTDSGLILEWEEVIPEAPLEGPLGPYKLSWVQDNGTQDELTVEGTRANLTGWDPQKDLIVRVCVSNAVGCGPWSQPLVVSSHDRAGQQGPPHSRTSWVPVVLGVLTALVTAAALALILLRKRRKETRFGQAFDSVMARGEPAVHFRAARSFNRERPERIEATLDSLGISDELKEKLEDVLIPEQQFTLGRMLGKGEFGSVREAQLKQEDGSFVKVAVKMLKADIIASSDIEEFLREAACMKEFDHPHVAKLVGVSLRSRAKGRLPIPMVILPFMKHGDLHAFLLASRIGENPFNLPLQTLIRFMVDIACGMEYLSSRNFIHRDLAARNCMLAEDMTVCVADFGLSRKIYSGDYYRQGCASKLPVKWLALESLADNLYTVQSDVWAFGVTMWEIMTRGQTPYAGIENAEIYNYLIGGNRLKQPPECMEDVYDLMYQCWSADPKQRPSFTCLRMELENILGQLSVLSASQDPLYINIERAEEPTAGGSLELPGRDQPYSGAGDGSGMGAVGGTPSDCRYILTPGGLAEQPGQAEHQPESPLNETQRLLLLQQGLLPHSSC
Briefly: IMAP fluorescence polarization kinase assay, TYRO3. The format is biochemical. Conditions: ATP 54.0 μM, enzyme 2.5 nM, 60 minutes, read-out: TYRO3 inhibitory constant (Ki). The protocol:
as §1, §2, §3

Where a name gives a salt, the structure may show the parent alone.

In the case of `CCCc1cc2c(N[C@H]3CC[C@H](N)CC3)c(C(=O)Nc3ccc(F)cc3)cnc2[nH]1` [Compound 100, 4-(((1r,4r)-4-aminocyclohexyl)amino)-N-(4-fluorophenyl)-2-propyl-1H-pyrrolo [2,3-b]pyridine-5-carboxamide hydrochloride], the values for the Ki on AXL and at TYRO3 were 1 to 10 µM and < 0.1 µM, respectively.
In the case of `CCCc1cc2c(N[C@H]3CC[C@H](O)CC3)c(-c3ccc(CN4CCOCC4)cn3)cnc2[nH]1` [Compound 105], the figures for the Ki on AXL and at TYRO3 were 0.1 to 1 µM and < 0.1 µM, respectively.
Take `CCCc1cc2c(N[C@H]3CC[C@H](N)CC3)c(-c3nccs3)cnc2[nH]1` [Compound 117]: the inhibitory constant (Ki) (usually the equilibrium dissociation constant of an inhibitor or competing ligand from its target) on AXL was 0.1 to 1 µM; at TYRO3 it was < 0.1 µM.
The matching figures for `CCCc1cc2c(N[C@H]3CC[C@H](N)CC3)c(-c3ccnc(N)n3)cnc2[nH]1` [Compound 123]: < 0.1 µM and < 0.1 µM.
